The source of these data is article PMC11455950, “Effects of SZV-2649, a new multiple ion channel inhibitor mexiletine analogue” (Scientific Reports, 2024).

Assay [1] has as its system IKACh in dog atrial trabecular muscle preparations. Briefly: Action potential duration in carbachol-pretreated dog atrial trabecular muscle. As to conditions: 1 µM, 10 min. On the procedure: The possible effect of SZV-2649 on IKACh was investigated in dog atrial trabecular muscle preparations. Carbachol (1 µM) was added to the tissue bath for 10 min to activate IKACh. […] Application of 10 µM SZV-2649 prolonged APD substantially to a greater degree (100%) than could be expected by its effect on repolarization in the absence of carbachol (10%) as shown in Table 1; Fig. 5D.
Action potentials were recorded in cardiac ventricular trabeculae and papillary muscle preparations obtained from the right ventricles of Beagle dogs (10–15 kg) of either sex using the conventional microelectrode technique. Dogs were sacrificed by iv. sedation with xylazine (1 mg/kg), followed by i.v. administration of 50 mg/kg pentobarbital. After the cornea reflex disapeared the chest was opened, and the heart was rapidly removed. […]
Isolated papillary muscle or atrial trabecula and Purkinje fiber preparations were obtained and prepared from the right ventricle and were individually mounted in a tissue chamber with the volume of 50 ml. […] Transmembrane potentials were recorded using conventional glass microelectrodes, filled with 3 M KCl and having tip resistances of 5–20 MΩ, connected to the input of a high impedance electrometer (Experimetria, type 309, Budapest, Hungary) which was coupled to a dual beam oscilloscope. […]

The test system of the next assay is anesthetized rats. Briefly: Coronary artery occlusion/reperfusion-induced ventricular arrhythmias in anesthetized rats. Type of assay: in vivo, rat. As to conditions: for Effect on incidence of ventricular arrhythmias: 6 min coronary artery occlusion / 5 min reperfusion, i.v. 2 min before ischemia; for Incidence of ventricular fibrillation (VF): during reperfusion, over 50% in control animals; for Effect on heart rate: i.v. administration, anesthetized rats. From the text:
The effects of SZV-2649 were further studied in the acute ischemia-induced ventricular arrhythmia model in anasthetized rats. Mexiletine and dofetilide were used as reference compounds for comparison.
The surgical procedure was based on a modified method described in detail in Gömöri et al. (2020)[62]. Pentobarbital-anesthetized male Wistar-Hannover rats were mechanically ventilated and subjected to thoracic surgery to perform a 6-min coronary artery occlusion and 5-min of reperfusion for the development of ischemia-induced ventricular arrhythmias (see Fig. 6A). The right jugular vein was cannulated for the administration of SZV-2649, vehicle, mexiletine or dofetilide, and the right carotid artery was used to measure blood pressure. The three-lead electrocardiogram and body temperature were continuously registered. Ten to twelve rats per group were administered vehicle (dimethyl sulfoxide, 200 µL/kg) or the studied drugs (see above), 2 min before the onset of ischemia as a slow i.v. bolus injection through the right jugular vein. At the end of 5-min reperfusion, hearts were isolated, mounted onto a Langendorff perfusion system, and after re-occluding the coronary artery, were perfused with 5-mL of 70% ethanol via the ascending aorta to delineate the ischemic risk zone. Then the left ventricles were cut along the demarcation lines of denatured area, and the sections were weighed to determine the area of risk to normalize the extent of the ischaemic insult. We evaluated the occurrence of ventricular arrhythmias based on the recommendations of the modified Lambeth Conventions published previously by Curtis et al. (2013)[63].

Another assay concerns anesthetized dogs. Briefly: Atrial fibrillation induced by carbachol infusion and burst stimulation in anesthetized dogs. Further details: key to AF converted to SR? / AF reinduced?: N, response not observed; Y, response observed. As to conditions: i.v. 0.3 mg/kg. Type of assay: in vivo, dog. On the procedure:
The effect of SZV-2649 was further investigated in carbachol-infused and programmed electrical stimulation-induced (i.e. 800/min atrial burst stimulation) acute atrial fibillation model in anesthetized dogs.
In the atrial fibrillation experiments, at least 5–6 dogs for control and test groups, (respectively) were used. Following 0.5 µg/kg sufentanyl premedication and […] i.v. pentobarbital anaesthesia induction, left thoracotomy was performed on all animals. Dogs were endotracheally intubated and mechanically ventilated (UGO Basile respirator; Biological Research Apparatus, Italy) Physiological parameters (non-invasive blood pressure, SpO2, ECG) were continuously monitored during surgery and experiments (InnoCare-VET Patient Care Monitor; Budapest, Hungary). The ECGs were recorded using precordial leads and were digitized and stored on a computer for off-line analysis using National Instruments data acquisition hardware (National Instruments, Austin, Texas, USA) and SPEL Advanced Haemosys software (version 3.2, MDE Heidelberg GmbH, Germany). Under pentobarbital anaesthesia, two pacemaker electrodes (Biotronik Solia S 60; Biotronik Ltd., Hungary) were positioned epicardially into the left atrial appendage and apex of the left ventricle, respectively, and electrodes were connected to pacemakers (Effecta D; Biotronik Hungary Ltd., Hungary). Pacemakers were programmed in VVI mode using Biotronik IC: 4808 A-Renamic programmer to prevent the potentially bradycardic effect of carbachol leading to hemodynamic instability. Atrial and ventricular thresholds were measured before AF induction in all animals. Ventricular and atrial pacing were set to three times the measured threshold. AF inducibility were tested in both groups using a control set (25 times) of 10-second-long rapid atrial bursts (800 beats/min, at threefold threshold). Following 25 atrial burst stimuli, 2 × 2 µg/kg loading dose of intravenous carbachol was administered followed by an 8 µg/kg/h maintenance dose. Atrial fibrillation was induced using 10-second-long atrial burst stimuli in the presence of carbachol in both groups of dogs. […] In these experiments, we investigated whether AF was converted to SR by the test drug(s). All intravenous infusions were performed using a programmable infusion pump (Terufusion TE-3; Terumo Europe, Leuven, Belgium).

For `C[N+](C)(C)CCOC(N)=O` [carbachol, reference compound], the “Effect on atrial repolarization” value in assay [1] is “substantially shortened”.

Take `CN(CCOc1ccc(NS(C)(=O)=O)cc1)CCc1ccc(NS(C)(=O)=O)cc1` [dofetilide]: in the assay on anesthetized rats, the “Effect on incidence of ventricular arrhythmias” value is listed as “increased”, the “Incidence of ventricular fibrillation (VF)” value stood at 75% and the “Effect on heart rate” value is recorded as “significantly decreased”.

`Cc1cccc(C)c1OCC(C)N` (centres unmarked) [mexiletine]: in the assay with anesthetized rats, the “Effect on incidence of ventricular arrhythmias” value is reported as “showed some antiarrhythmic effects”, the “Incidence of ventricular fibrillation (VF)” value is 18% and the “Effect on heart rate” value is given as “significantly decreased”.

On to `CCCNCC(O)COc1ccccc1C(=O)CCc1ccccc1` (centres unmarked) [propafenone, reference compound], for which, in the assay on anesthetized dogs (individual dogs, carbachol + burst), the “AF reinduced (number of the 25 burst stimuli)” value is recorded as 1/25. Moreover, the “AF reinduced?” value in the assay with anesthetized dogs (individual dogs, carbachol + burst, 0.3 mg/kg) is “N (-) and Y”. For the same compound, in the assay on anesthetized dogs (whole group), the “Atrial fibrillation reinduced, share of burst stimuli” value worked out at 1.6% and the “Times atrial fibrillation was reinduced by the 25 burst stimuli delivered in each animal” value amounted to 2 times.
